Converted amounts (≈) assume the structure as drawn. Like-named read-outs stand apart in the source and are kept apart here.

The source of these data is US20100226857A1, “TUMOR CELL DIFFERENTIATION AGENTS AS CHEMICAL INHIBITORS AND TREATMENTS FOR INTRACELLULAR PARASITES” (priority 2006, published 2010).

For series [1], the system named is T. gondii tachyzoites. Put plainly: In vivo acute toxoplasmosis in mice (survival). Also noted: species or system Toxoplasma gondii; CD-1 mice. To be noted: for control of acute toxoplasmosis in mice: TSA 0.5 mg/kg, SAHA 50 mg/kg, scriptaid 3.5 mg/kg i.p. once daily, valproic acid 300 mg/kg oral daily; for median survival: mice. As to the method:
Specifically, female CD-1 mice (20 g) were inoculated in the sub-scapular region with 5,000 T. gondii tachyzoites on Day 0. […] The dose of scriptaid was not optimized in this experiment. In this study, valproic acid was administered orally in the drinking water at a dose of 300 mg/kg. Survival was monitored twice daily beginning on day 9 of the study. The results are depicted graphically in FIG. 5A and in tabular form in FIG. 5B.

The subject of series [2] is HS68 human foreskin fibroblast cells. Put plainly: Toxicity to HS68 host cells. The series is classed as cell-based. Particulars: for toxicity to HS68 cells at highest concentration tested: 10 uM.
The subject of series [3] is T. gondii. Put plainly: Plaque suppression / protection of HS68 monolayer from T. gondii. The series is classed as cell-based, Toxoplasma gondii. To be noted: for state of HS68 monolayer of T. gondii-infected treated cells: 1 uM, 48 hours; for MIC: Toxoplasma gondii, read-out: MIC (uM) Plaque Suppression; for MIC IC50 (ratio MIC/IC50): MIC plaque suppression relative to IC50 tachyzoite count. The method, then: (§1) Proliferation assays: HS68 cells were replica plated in 48-well dishes, and grown to confluence prior to infection with 5-10×10^4 freshly purified T. gondii tachyzoites/well. After 2 hours, the media and non-infective tachyzoites were removed, and replaced with RPMI medium containing 2% fetal bovine serum plus 1 mM sodium pyruvate, penicillin (100 U), streptomycin (100 U) and test agent or a vehicle control. The proliferation assays were terminated 48-72 hours post-infection when the untreated cells were heavily infected. All of the culture media were removed from the wells, and the tachyzoites in the media were fixed by dilution (1:1) into phosphate-buffered saline containing 10% formaldehyde. The tachyzoites were collected by brief centrifugation (30 seconds, […]) at room temperature using a tabletop microfuge. The tachyzoites were resuspended in 100 ul of phosphate-buffered saline, and duplicate aliquots were counted using a hemocytometer. […] The monolayer of HS68 cells in each well was fixed and stained for 5 minutes using a solution of 50% ethanol-5% formaldehyde-0.1% crystal violet in 0.85% sodium chloride, then rinsed with water, and air-dried. The minimum inhibitory concentration (MIC) of compounds that suppressed Toxoplasma-induced lysis of the HS68 cells was determined visually by counting the number of plaques/well in the monolayer.

Series [4] relates to human tumor cell lines. To be noted: cited from earlier work.
Series [5] relates to T. gondii tachyzoites. Description: T. gondii tachyzoite proliferation assay in HS68 cells (tachyzoite count). To be noted: for times tachyzoites are more sensitive than human tumor cells: tachyzoite IC50 vs literature tumor cell concentrations. The series is classed as cell-based, Toxoplasma gondii. As to the method:
Parasite propagation—The RH strain of Toxoplasma gondii was grown in BM bovine macrophage cells or HS68 human foreskin fibroblast cells obtained from the American Type Culture Collection (Rockville, Md.). HS68 cells were grown in RPMI 1640 medium (Mediatech, Inc., Herndon, Va.) plus 10% fetal bovine serum (Atlanta Biologicals, Lawrenceville, Ga.), 1 mM sodium pyruvate and 100 U/ml each of penicillin and streptomycin. Parasites were harvested from infected cultures of HS68 cells growing in T-75 cm^2 flasks. After removing the culture medium, the cells were scraped into 5 ml of phosphate-buffered saline and a cell lysate obtained by passing through a 26-gauge needle. To purify the parasites, the cell lysate was filtered through a 3 micron (micrometer) filter.
as §1

Series [6] relates to Cryptosporidium parvum. Description: Real-time PCR analysis of C. parvum oocyst production in infected HCT-8 cells. Type of series: cell-based. Particulars: 48 hours, apicidin 70 ng/ml, SAHA 2.5 ug/ml; for % Reduction in oocysts numbers: vs 0.1% DMSO. As to the method:
Monolayer cultures of HCT-8 human colon cells growing in 24-well plastic tissue culture dishes were infected with C. parvum oocysts for 3 hours. […] The cells were harvested, and DNA was extracted. The DNA was analyzed for the production of C. parvum oocysts from the infected cells using real-time PCR and DNA primers that specifically amplify the C. parvum oocysts wall protein (COWP).

For series [7], the system named is MCF-7 human breast cancer cells. Put plainly: ESR free radical (ROS) measurement in MCF-7 cell suspensions with DMPO. Particulars: for ESR signal indicative of ROS production in MCF-7 cells: 10 uM NSC3852, 8 uM NSC2039. The series is classed as cell-based. As to the method: Free Radical Measurements: All ESR measurements were conducted using a Bruker EMIR spectrometer (Bruker Instruments Inc., Billerica, Mass.) and a flat-cell assembly. Hyperfine couplings were measured (to 0.1 G) directly from magnetic field separation using potassium tetraperoxochromate (K3CrO8) and 1,1-diphenyl-2-picrylhydrazyl as reference standards. The relative radical concentration was estimated by multiplying half of the peak height by (ΔHpp)^2, where (ΔHpp) represents peak-to-peak width. The Acquisit program was used for data acquisitions and analyses. MCF-7 cells (2.0×10^6 cells/60-mm^2 dish) were harvested 48 h after plating by trypsinization and collected at room temperature by centnfugation (225 g, 5 min). Cells were washed once with ice-cold PBS and resuspended in ice-cold PBS at 2×10^6 cells/ml. Radical production was measured in the presence of the spin trap 5,5-dimethyl-1-pyrroline-N-oxide (DMPO; Aldrich Chemical Co., Milwaukee, Wis.). DMPO (200 mM) and 1×10^6 cells test agents were mixed in 1.0 ml of PBS, incubated at 37° C. for 5 mm, and then transferred to a flat cell for ESR measurements.

Series [8] concerns MCF-7 cells. Put plainly: Comet assay for DNA damage. The series is classed as cell-based, human. As to the method: Comet Analysis: The comet assay is a single-cell gel electrophoresis method for measuring DNA damage. MCF-7 cells (2×10^5/35-mm^2 dish) were treated 12 h after plating. Twenty-four hours later, the cells were harvested and resuspended (1.5×10^5 cells/ml) in ice-cold PBS. The PBS cell suspension (50 ul) was mixed with 500 ul of 42° C. low-melting point agarose, spread evenly (75 ul) onto a Comet Slide (Trevigen, Gaithersburg, Md.), and allowed to harden. The slides were then immersed in ice-cold lysis solution (Trevigen) for 45 mm to lyse the cells and then transferred to freshly prepared alkali solution (300 mM NaOH and 1 mM EDTA, […]) for 45 mM. at room temperature to denature the DNA. Electrophoresis was performed at 4° C. Slides were air-dried overnight at room temperature and then stained with SYBR Green (Trevigen). Comets were visualized by fluorescence microscopy at 630× magnification with the aid of an antifade solution. Comet images were analyzed using the LAI Automated Comet Assay Analysis System (Loats Associates, Inc., Westminster, Md.). DNA damage was quantified in 80 comets per treatment/experiment using the tail moment [Tail moment [(% DNA) (distance traveled)]].

[9] abbreviates: RH strain T. gondii in HS68 cells, 48-well plate, mean+/-SEM.
Where [10] appears, read: RH strain T. gondii in HS68 cells, 48-well plate, 48-72 hours post-infection, mean+/-SEM, read-out: IC50 (uM) Tachyzoite Count.
The mark [11] stands for this setting: Toxoplasma gondii, RH strain T. gondii in HS68 cells, 48-well plate, 48-72 hours post-infection, mean+/-SEM, read-out: IC50 (uM) Tachyzoite Count.

On to `O=C(CCCCCCC(=O)Nc1ccccc1)NO` [SAHA, suberoylanilide hydroxamic acid], for which the “control of acute toxoplasmosis in mice” value in series [1] is “showed in vivo efficacy”. The “toxicity to HS68 cells at highest concentration tested” value in series [2] is recorded as “no discernable toxicity”. For the same molecule, in series [3], the “state of HS68 monolayer of T. gondii-infected treated cells” value is on record as “completely intact”. Besides, in series [3] (setting [9]), the MIC came out at 0.4 ± 0.1 µM (≈ 0.106 µg/mL). In addition, in series [4] (variety of human tumor cell lines in tissue culture), the “concentration reducing tumor cell numbers and inducing tumor cell apoptosis” value is 1 to 20 µM. Further, the “times tachyzoites are more sensitive than human tumor cells” value in series [5] is 10-200 times. Further, in series [6], the “number of oocysts/ml (mean ± S.D. n = 6)” value is recorded as 252.8 ± 280 oocysts/ml and the “% Reduction in oocysts numbers” value was determined as 96.2%.
As to `O=C(CCCCCCC(=O)NO)NO` [SBHA, suberic bishydroxamic acid], the “MIC IC50 (ratio MIC/IC50)” value in series [3] was determined as 58.7. The “MIC (uM) Plaque Suppression” value in series [3] (setting [9]) amounted to 12.5 ± 5 µM (≈ 2.55 µg/mL). In addition, in series [7], the “ESR signal indicative of ROS production in MCF-7 cells” value was “rapid and robust ESR signals”. Besides, the IC50 in series [5] (setting [10]) worked out at 0.213 ± 0.11 µM.
On to `Oc1cccc2cccnc12` [NSC2039, 8-quinolinol], for which, in series [8], the “DNA damage (comet tail moment)” value was “did not induce DNA damage”. In series [7], the “ESR signal indicative of ROS production in MCF-7 cells” value is on record as “no signal was produced”.
On to 4-phenylbutyrate, for which, in series [3], the “MIC IC50 (ratio MIC/IC50)” value stood at 3.1. For the same molecule, the “MIC (uM) Plaque Suppression” value in series [3] (setting [9]) was 16,700 ± 3300 uM. Further, the IC50 in series [5] (setting [10]) came out at 5350 ± 2750 µM.
Take `CCCC(CCC)C(=O)[O-].[Na+]` [Valproic acid, sodium valproate]: the “control of acute toxoplasmosis in mice” value in series [1] is on record as “ineffective”. Also, in series [1] (doses up to 600 mg/kg/day, oral or intraperitoneal), the “therapeutic effect against RH T. gondii in mice” value is recorded as “not therapeutic”. Further, the median survival in series [1] (i.p. 400 mg/kg and 600 mg/kg divided into 2 daily doses) stood at 10 days; in series [1] (oral dose of 600 mg/kg), 12 days. Moreover, the “MIC IC50 (ratio MIC/IC50)” value in series [3] is 5.2. The MIC in series [3] (setting [9]) is 8300 ± 1000 µM. Also, the IC50 is 1600 ± 1120 µM in series [5] (setting [11]) and 1000 to 5000 µM in series [5] (Toxoplasma gondii, RH strain in HS68 cells, read-out: IC50 range of carboxylate inhibitors).
As to `NC(=O)c1cccnc1` [nicotinamide], the “activity against T. gondii in in vitro assays” value in series [5] is reported as “minimal activity”.
On to `O=C(CCCCCN1C(=O)c2cccc3cccc(c23)C1=O)NO` [Scriptaid], for which the “control of acute toxoplasmosis in mice” value in series [1] was “showed in vivo efficacy”. Further, the “daily dose that can extend the life of mice infected with RH T. gondii” value in series [1] (for 14 days) was “about 3.5 mg/kg”. In addition, in series [2], the “toxicity to HS68 cells at highest concentration tested” value is given as “non-toxic”. In addition, the “state of HS68 monolayer of T. gondii-infected treated cells” value in series [3] is “completely intact”. For the same molecule, the “MIC IC50 (ratio MIC/IC50)” value in series [3] is 5.8. The MIC in series [3] (setting [9]) is 0.225 ± 0.025 µM (≈ 0.0734 µg/mL). The “IC50 levels reducing tumor cell proliferation in vitro” value in series [4] was 1 to 20 µg/mL. The IC50 is 3 to 60 µM in series [4] (read-out: IC50 levels reducing tumor cell proliferation in vitro); 0.039 ± 0.011 µM in series [5] (setting [11]); 0.037 µM in series [5] (Toxoplasma gondii, RH strain in HS68 cells, average of independent experiments, read-out: IC50 T. gondii tachyzoites). In series [5] (biphasic response, FIG. 4), the “low concentrations stimulating tachyzoite numbers” value lay in the range of 1 to 10 nM. In series [5], the “times tachyzoites are more sensitive than human tumor cells” value is 80-1500 times.
Consider `CCC(=O)CCCCC[C@@H]1NC(=O)[C@H]2CCCCN2C(=O)[C@H]([C@@H](C)CC)NC(=O)[C@H](Cc2cn(OC)c3ccccc23)NC1=O` [Apicidin], for which, in series [6], the “number of oocysts/ml (mean ± S.D. n = 6)” value came to 517.7 ± 417.1 oocysts/ml and the “% Reduction in oocysts numbers” value turned out to be 92.2%.
Consider `CC(/C=C/C(=O)NO)=C\[C@@H](C)C(=O)c1ccc(N(C)C)cc1` [TSA, trichostatin A], for which, in series [1], the “control of acute toxoplasmosis in mice” value is given as “showed in vivo efficacy”. For the same molecule, the “concentration at which apoptotic HS68 cells were evident” value in series [2] turned out to be 500 nM. Also, in series [3], the “MIC IC50 (ratio MIC/IC50)” value worked out at 4.3. The “MIC (uM) Plaque Suppression” value in series [3] (setting [9]) turned out to be 0.175 ± 0.025 µM (≈ 0.0529 µg/mL). In series [7] (200 nM, 1×10^6 MCF-7 cells, 5 min at 37° C.), the “relative peak heights of the ESR signals (mean±range, n=2)” value stood at 99±1 mm. In addition, the IC50 in series [5] (setting [10]) was determined as 0.041 ± 0.001 µM. Besides, in series [5] (T. gondii infected HS68 cells), the “concentration that eliminated tachyzoites and plaque formation” value was determined as 200 nM. For the same molecule, the “concentrations giving dramatic decrease in tachyzoite numbers” value in series [5] (p<0.05) is above 100 nM.
Turning to `CCCC(=O)[O-].[Na+]` [Sodium butyrate, sodium butyrate], in series [3], the “MIC IC50 (ratio MIC/IC50)” value is recorded as 4.2 and the MIC turned out to be 4200 ± 800 µM. In addition, in series [5] (Toxoplasma gondii, Hs68, read-out: IC50 (uM) Tachyzoite Count), the IC50 came to 1000 ± 455 µM. The IC50 in series [5] (Toxoplasma gondii, Hs68, read-out: IC50 range of carboxylate inhibitors) lay in the range of 1000 to 5000 µM.
